Laboratory results from patent US5244895A, “Anti-ulcer agent” (Hidaka; Hiroyoshi, priority 1991, dated 1993).

What was measured:
[1] = Acute toxicity, oral administration; type: in vivo, Sle:ICR mouse (male); settings: 300 mg/kg oral, 6 hours observation; for Mortality rate: deaths/mice
Description: (§1) Each test compound was administered to a male Sle:ICR mouse of 29 to 32 g body weight fasted for 18 to 20 hours (5 mice per group) to examine the presence of acute toxicity.

[2] = tested on: gastric juice secretion; assay: Anti-gastric juice secretion test, intraduodenal administration (pylorus ligation); type: in vivo, Crj:Wistar rat (male); settings: 100 mg/kg intraduodenal, 4 h after pylorus ligation; for pH of gastric juice: control 1.7; for Amount of gastric juice: control 2.6; for Free hydrochloric acid: control 116; for Total acidity: control 168
Description: Each 100 mg/kg of the test compounds was administered duodenally to a male Crj:Wistar rat of 205 to 240 g body weight fasted for ca. 24 hours (7 to 8 rats per group) and immediately after the dose the pylorus was ligated under diethyl ether anesthesia. Four hours after the ligation, the animal was killed and the stomach was isolated and the amount and the pH of gastric juice and free hydrochloric acid contained in it and the total acidity of it were measured to examine the effect of inhibiting gastric juice secretion. The test compounds were dosed after dissolved in physiological saline or in physiological saline containing Tween 80 added. Five […] of physiological saline was administered to the control group.

[3] = tested on: water immersion restriction stress ulcer; assay: Water immersion restriction stress ulcer, oral administration; type: in vivo, Crj:Wistar rat (male); settings: 100 mg/kg oral; for Gastric damage index: 30 min before 6 h water immersion stress, control 15.7; for inhibition in vivo at 100 mg/kg: Rattus norvegicus, 6 h, read-out: Inhibition rate
Description: (§2) After the stress loading, the animal was killed by exsanguination and the cardia part of stomach was ligated and then 10 ml of 1% formalin was poured into the stomach and the stomach was extirpated. […] 0.5 ml/body weight of 1% pontamine sky blue physiological saline was injected intravenously 10 minutes before the slaughter. The test compound was administered after dissolved in physiological saline or in physiological saline containing Tween 80 added. Five […] of physiological saline was administered to the control group.

[4] = tested on: aspirin ulcer; assay: Anti-aspirin ulcer test, oral administration; type: in vivo, Crj:Wistar rat (male); settings: 100 mg/kg oral; for Gastric damage index: 30 min before aspirin 200 mg/kg oral, control 76.0; for Gastric damage index / inhibition in vivo at 100 mg/kg: 6 h; for inhibition in vivo at 100 mg/kg: Rattus norvegicus, read-out: Inhibition rate
Description: (§3) Each 100 mg/kg of the test compounds was administered orally to a male Crj:Wistar rat of 198 to 243 g body weight fasted for ca. 24 hours (7 to 8 rats per group) and 30 minutes after the administration 200 mg/5 ml/kg of aspirin suspended in 0.5% sodium CMC aqueous solution was administered orally. Six hours later the animals was killed by exsanguination and the cardia part of stomach was ligated and 10 ml of 1% formaline solution was poured into the stomach and the stomach was extirpated. Then, it was incised along the greater curvature side and washed with physiological saline and the major axis of the spotted and linear erosion and ulcer were measured under a steromicroscope and their total sum per head was calculated as the gastric damage index (mm) and the effect was judged by the inhibiting rate against the control group [(Gastric damage index of the control group-Gastric damage index of the test compound)/Gastric damage index of the control group×100]. 0.5 ml/body weight of 1% pontamine sky blue physiological saline was injected intravenously 10 minutes before the slaughter. The test compound was administered after dissolved in physiological saline or in physiological saline containing Tween 80 added. Five […] of physiological saline was administered to the control group.

[5] = tested on: gastric juice secretion; assay: Anti-gastric juice secretion test, intraperitoneal administration (pylorus ligation); type: in vivo, Crj:Wistar rat (male); settings: 100 mg/kg intraperitoneal, 30 min before pylorus ligation; for pH of gastric juice: control 1.7; for Amount of gastric juice: control 3.2; for Free hydrochloric acid: control 155; for Total acidity: control 208
[6] = Acute toxicity, intraperitoneal administration; type: in vivo, Sle:ICR mouse (male); settings: 200 mg/kg intraperitoneal, 6 hours observation; for Mortality rate: deaths/mice
Description: as §1

[7] = tested on: water immersion restriction stress ulcer; assay: Water immersion restriction stress ulcer, intraperitoneal administration; type: in vivo, Crj:Wistar rat (male); settings: 100 mg/kg intraperitoneal; for Gastric damage index: control 22.7; for Inhibition rate: gastric damage index vs control
Description: as §2

[8] = tested on: aspirin ulcer; assay: Anti-aspirin ulcer test, intraperitoneal administration; type: in vivo, Crj:Wistar rat (male); settings: for Gastric damage index: 100 mg/kg intraperitoneal (abdominally injected), control 58.8; for Inhibition rate: gastric damage index vs control, 100 mg/kg intraperitoneal
Description: as §3
Each 100 mg/kg of the test compound was abdominally injected to a male Crj:Wistar rat of 210 to 265 g body weight fasted for ca. 24 hours (7 to 8 rats per group) and the procedures were carried out in a same manner as in oral administration.

[9] = gastric damage index vs control, water immersion stress
[10] = gastric damage index vs control, aspirin 200 mg/kg

SMILES | General condition [1] | Mortality rate [1] | pH of gastric juice [2] | Amount of gastric juice [2] | Free hydrochloric acid [2] | Total acidity [2] | Gastric damage index [3] | inhibition in vivo at 100 mg/kg [3, 9] | Gastric damage index [4] | inhibition in vivo at 100 mg/kg [4, 10] | pH of gastric juice [5] | Amount of gastric juice [5] | Free hydrochloric acid [5] | Total acidity [5] | General condition [6] | Mortality rate [6] | Gastric damage index [7] | Inhibition rate [7] | Gastric damage index [8] | Inhibition rate [8] | other results
CN(C(Cc1ccc(O)cc1)CN1CCN(C(=O)OCc2ccccc2)CC1)S(=O)(=O)c1cccc2cnccc12 (stereo not drawn) [(4), N-[2-(4-benzyloxycarbonylpiperazinyl)-1-(p-hydroxybenzyl)ethyl]-N-methyl-5-isoquinoline sulfonamide] | No abnormality | 0/5 | 2.3 | 1.8 ml/100 g body weight | 36 μEq/100 g body weight | 74 μEq/100 g body weight | 8.4 mm | 46% | 34.6 mm | 55% | – | – | – | – | – | – | – | – | – | – | –
COc1ccc(CC(CN2CCN(C(=O)OCc3ccccc3)CC2)N(C)S(=O)(=O)c2cccc3cnccc23)cc1 (stereo not drawn) [(5), N-[2-(4-benzyloxycarbonylpiperazinyl)-1-(p-methoxybenzyl)ethyl]-N-methyl-5-isoquinoline sulfonamide] | No abnormality | 0/5 | 2.3 | 1.8 ml/100 g body weight | 48 μEq/100 g body weight | 80 μEq/100 g body weight | 7.7 mm | 51% | 36.5 mm | 53% | – | – | – | – | – | – | – | – | – | – | –
CN(C(Cc1ccc(O)cc1)CN1CCCN(C(=O)OCc2ccccc2)CC1)S(=O)(=O)c1cccc2cnccc12 (stereo not drawn) [(14), N-[2-(4-benzyloxycarbonylhomopiperazinyl)-1-(p-hydroxybenzyl)ethyl]-N-methyl-5-isoquinoline sulfonamide] | No abnormality | 0/5 | 3.1 | 0.6 ml/100 g body weight | 8 μEq/100 g body weight | 11 μEq/100 g body weight | 4.3 mm | 73% | 11.2 mm | 85% | 3.0 | 0.6 ml/100 g body weight | 4 μEq/100 body weight | 17 μEq/100 body weight | No abnormality | 0/5 | 3.9 mm | 83% | 5.3 mm | 91% | –
COc1ccc(CC(CN2CCCN(C(=O)OCc3ccccc3)CC2)N(CCN)S(=O)(=O)c2cccc3cnccc23)cc1 (stereo not drawn) [(15), N-[2-(4-benzyloxycarbonylhomopiperazinyl)-1-(p-methoxybenzyl)ethyl]-N-(2-aminoethyl)-5-isoquinoline sulfonamide] | – | 0/5 | 2.6 | 1.1 ml/100 g body weight | 22 μEq/100 g body weight | 43 μEq/100 g body weight | 6.6 mm | – | 35.8 mm | – | 2.6 | 1.3 ml/100 g body weight | 36 μEq/100 body weight | 74 μEq/100 body weight | – | 0/5 | 6.6 mm | 71% | 11.8 mm | 80% | Inhibition rate [3, 9]: 58%; Inhibition rate [4, 10]: 64%
COc1ccc(CC(CN2CCCN(C(=O)OCc3ccccc3)CC2)N(CCN(C)C)S(=O)(=O)c2cccc3cnccc23)cc1 (stereo not drawn) [(16), N-[2-(4-benzyloxycarbonylhomopiperazinyl)-1-(p-methoxybenzyl)ethyl]-N-(2-dimethylaminoethyl)-5-isoquinoline sulfonamide] | No abnormality | 0/5 | 2.9 | 0.9 ml/100 g body weight | 11 μEq/100 g body weight | 29 μEq/100 g body weight | 4.6 mm | 70% | 17.0 mm | 78% | 2.9 | 0.6 ml/100 g body weight | 8 μEq/100 body weight | 24 μEq/100 body weight | No abnormality | 0/5 | 5.4 mm | 76% | 10.6 mm | 82% | –
